Here are results for four molecules from patent US8048900B2, “Use of 15-lipoxygenase inhibitors for treating obesity” (Genfit S.A., priority 2006, dated 2011).

Structures are written as SMILES. Like-named read-outs stand apart in the source and are kept apart here.

Assay [1] has as its system 15-LO. As to conditions: 15-LO inhibition, cited from earlier work.
Assay [2] concerns human abdominal visceral PA. The experiment in a line: Adiponectin secretion during differentiation of human abdominal visceral pre-adipocytes. It counts as cell-based. As to conditions: culture supernatant, D7 of differentiation, treated from D0, PA culture No. 3 passage 4. Here is the method:
HWP from Promocell are maintained in PA growth medium (0.4% ECGS/H, 5% FCS, 10 ng/ml EGF, 1 μg/ml hydrocortisone, 50 ng/ml amphotericin B, 50 μg/ml gentamycin) until confluence. When cells reach confluence, they are differentiated for 3 days in PA differentiation medium (8 μg/ml d-biotin, 0.5 μg/ml recombinant human insulin, 400 ng/ml dexamethasone, 44 μg/ml IBMX, 9 ng/ml L-thyroxin, 3 μg/ml ciglitazone, 50 ng/ml amphotericin B, 50 ng/ml gentamycin), then cultured to the terminal differentiation stage in adipocyte nutritive medium (3% FCS, 8 μg/ml d-biotin, 0.5 μg/ml recombinant human insulin, 400 ng/ml dexamethasone, 50 ng/ml amphotericin B, 50 μg/ml gentamycin). PA from Cambrex are maintained in PA growth medium (10% FCS, 100 U/ml penicillin, 100 μg/ml streptomycin) until confluence, then the medium is replaced by differentiation medium (10% FCS, 10 μg/ml recombinant human insulin, 1 μM dexamethasone, 500 μM IBMX, 200 μM indomethacin, 100 U/ml penicillin, 100 μg/ml streptomycin) throughout the differentiation process. […]
Adiponectin is a factor secreted by adipocytes and, like aP2, serves as a marker of adipocyte differentiation in our cultures. Adiponectin concentrations is determined in culture supernatants at different times during differentiation using the Quantikine human adiponectin/ACRP30 kit according to the supplier's instructions (R&D, Minneapolis, Minn., USA).

Assay [3] concerns human abdominal visceral PA. The experiment in a line: aP2 marker expression during differentiation of human abdominal visceral pre-adipocytes (RT-PCR / RT-QPCR). It counts as cell-based. Here is the method: HWP from Promocell are maintained in PA growth medium (0.4% ECGS/H, 5% FCS, 10 ng/ml EGF, 1 μg/ml hydrocortisone, 50 ng/ml amphotericin B, 50 μg/ml gentamycin) until confluence. When cells reach confluence, they are differentiated for 3 days in PA differentiation medium (8 μg/ml d-biotin, 0.5 μg/ml recombinant human insulin, 400 ng/ml dexamethasone, 44 μg/ml IBMX, 9 ng/ml L-thyroxin, 3 μg/ml ciglitazone, 50 ng/ml amphotericin B, 50 ng/ml gentamycin), then cultured to the terminal differentiation stage in adipocyte nutritive medium (3% FCS, 8 μg/ml d-biotin, 0.5 μg/ml recombinant human insulin, 400 ng/ml dexamethasone, 50 ng/ml amphotericin B, 50 μg/ml gentamycin). PA from Cambrex are maintained in PA growth medium (10% FCS, 100 U/ml penicillin, 100 μg/ml streptomycin) until confluence, then the medium is replaced by differentiation medium (10% FCS, 10 μg/ml recombinant human insulin, 1 μM dexamethasone, 500 μM IBMX, 200 μM indomethacin, 100 U/ml penicillin, 100 μg/ml streptomycin) throughout the differentiation process. Extraction of RNA and Analysis of 15-LO-1 and aP2 Gene Expression by RT-PCR and RT-QPCR
Human abdominal visceral PA from several donors are differentiated as described in example 4. PD146176 diluted in DMSO is added when the PA reached confluence (D0) and is maintained in the medium during the differentiation of PA to adipocytes. DMSO at 0.1% final concentration is added to the culture medium as negative control.
aP2 (adipocyte lipid-binding protein), like adiponectin, is a marker of adipocyte differentiation. Total RNA is extracted from the cells at different times during differentiation (D3, D7) as described in example 3 and expression of the aP2 marker is analyzed by RT-PCR or RT-QPCR as described in examples 1 and 2. Relative expression is reported with reference to the day of confluence (D0) and normalized to cyclophilin expression.

The subject of assay [4] is 3T3-L1 cells. The experiment in a line: Assay of intracellular triglycerides in 3T3-L1 cells. In kind it is cell-based, mouse. As to the method: The mouse PA 3T3-L1 cell line (ATCC) is maintained in DMEM (Dulbecco's Modified Eagle's minimal essential Medium) supplemented with 10% FCS, L-glutamine and a penicillin/streptomycin mixture. At confluence (D0), 3T3-L1 cells are differentiated by a two-day treatment with a mixture of dexamethasone (0.1 μM), isobutylmethylxanthine (0.25 mM) and insulin (0.4 μM). Cells are then maintained on insulin for another 14 days until differentiation is complete. Photographs are taken at different times after confluence in order to visually follow the differentiation process. PD146176 is added to the 3T3-L1 cells when they reach confluence (D0) and is maintained throughout the differentiation process with replacement every other day at the same time as the insulin. To assay intracellular triglycerides, the 3T3-L1 cells are differentiated in 24-well microtiter plates. Cells are washed three times in PBS, then 500 μl of homogenization buffer (150 mM NaCl, Tris HCL pH 8, 0.1% Triton X-100) are added to each well. The cells are scraped into a tube and lysed by sonication for 10 seconds at 40 watts. The lysate is then filtered on a 0.2 μM millipore filter. The assay is carried out on 125 μl of the resulting lysate using the Triglyceride L-type kit (Wako). The assay is normalized for the protein content of the lysates.

Assay [5] relates to 3T3-L1 cells. The assay can be described thus: 3T3-L1 cell morphology during adipocyte differentiation. It counts as cell-based, mouse. The note with it: addition at D0, photographs during differentiation. Here is the method: (§1) The mouse PA 3T3-L1 cell line (ATCC) is maintained in DMEM (Dulbecco's Modified Eagle's minimal essential Medium) supplemented with 10% FCS, L-glutamine and a penicillin/streptomycin mixture. At confluence (D0), 3T3-L1 cells are differentiated by a two-day treatment with a mixture of dexamethasone (0.1 μM), isobutylmethylxanthine (0.25 mM) and insulin (0.4 μM). Cells are then maintained on insulin for another 14 days until differentiation is complete. Photographs are taken at different times after confluence in order to visually follow the differentiation process.
(§2) PD146176 is added to the 3T3-L1 cells when they reach confluence (D0) and is maintained throughout the differentiation process with replacement every other day at the same time as the insulin.

Assay [6] deals with 3T3-L1 cells. The experiment in a line: aP2 and LPL expression by RT-QPCR in 3T3-L1 cells during differentiation. It counts as cell-based, mouse. The note with it: addition at D0, starting from D3 of differentiation. As to the method:
as §1, §2
Total RNA is extracted at different times during differentiation as described in example 3 and expression of the aP2 and LPL (lipoprotein lipase) genes is analyzed by RT-QPCR according to the method described in example 2 (see Table 9).

Assay [7] has as its system 3T3-L1 cells. The assay can be described thus: Quantification of 3T3-L1 differentiation with AdipoRed. In kind it is cell-based, mouse. The note with it: addition at D0, starting from D3 of differentiation. Here is the method: as §1, §2
The gradual accumulation of intracellular droplets is also used as a functional marker of differentiation to adipocytes. To quantify this accumulation the 3T3-L1 cells are differentiated in 96-well microtiter plates. The plates are removed from the incubator on the day of the assay in order to reequilibrate to room temperature. The medium is removed, the cells carefully rinsed with 200 μl PBS, and 200 μl PBS are then added to each well followed by 5 μl AdipoRed reagent (Cambrex, Paris, France). The plates are mixed before measuring fluorescence on a fluorimeter at an excitation wavelength of 485 nm and an emission wavelength of 535 nm.

In assay [8] the test system is rat PA. The experiment in a line: aP2 expression in rat primary PA during adipocyte differentiation. In kind it is cell-based. The note with it: 2.2 μM added at D0, read at D3. As to the method: (§3) Cells from the VS fraction (isolated by the same method as that described in example 3) are seeded in 6-well plates at a density of 80,000 cells/cm^2 in medium 199 (Gibco) supplemented with 10% FCS and a penicillin/streptomycin mixture. After a 16-hour incubation to allow cell adherence, the wells are gently rinsed with PBS to remove any non-adherent material. The cells are grown to confluence (D0) at which time the medium 199 is removed and replaced by ITT medium (DME/Ham's F12, 15 mM NaHCO3, 15 mM Hepes, 33 μm biotin, 17 μM panthotenate, 0.5 μM human insulin, 0.2 nM triiodothyronine and antibiotics) without addition of serum. Cells are maintained in this medium to enable differentiation; the medium is changed every 2-3 days during the differentiation process.
Caffeic acid (2.2 μM) was added when the rat PA reach confluence (D0) and is maintained during the adipocyte differentiation process. At a concentration of 2.2 μM, caffeic acid is considered as a selective inhibitor of 15-LO (Shureiqi I, Chen D, Lee J J, Yang P, Newman R A, Brenner D E, Lotan R, Fischer S M and Lippman S M, 2000). […]
Total RNA is extracted at different times during differentiation according to the method described in example 3 and aP2 and LPL gene expression is analyzed by quantitative RT-PCR as described in example 2 (see Table 10).

Assay [9] has as its system rat PA. The experiment in a line: Rat primary PA morphology during adipocyte differentiation. As to conditions: 2.2 μM added at D0. It counts as cell-based. Here is the method:
as §3
Caffeic acid (2.2 μM) was added when the rat PA reach confluence (D0) and is maintained during the adipocyte differentiation process. At a concentration of 2.2 μM, caffeic acid is considered as a selective inhibitor of 15-LO (Shureiqi I, Chen D, Lee J J, Yang P, Newman R A, Brenner D E, Lotan R, Fischer S M and Lippman S M, 2000). DMSO is added to 0.1% final concentration to the culture medium as negative control.

The mark [10] stands for this setting: value quoted from prior patents.

Usually IC50 stands for the concentration needed to halve the response being measured.

For `c1ccc2c(c1)SCc1c-2[nH]c2ccccc12` [PD146176, 6,11-dihydro-5-thia-11-aza-benzo[a]-fluorene], the values for the half-maximal inhibitory concentration (IC50) in assay [1] (value quoted from prior literature/patents) and in assay [1] (setting [10]) were 500 to 800 nM and 200 nM, respectively. Further, in [2], the adiponectin secretion result is listed as “sharply decreased”. In addition, in [3] (RT-PCR, D3 of differentiation, PA culture No. 1 passage 7, increasing concentrations added at D0), the “expression of the aP2 marker” value is reported as “decreases the expression of the aP2 marker in a dose-dependent manner”. For the same molecule, the “inhibition of 15-LO-1 expression” value in assay [3] (RT-QPCR, D7, 3 μM from D0, PA culture No. 2) is “almost completely”; in assay [3] (RT-QPCR, D7, 3 μM from D0, PA culture No. 3), 90%. In assay [3] (RT-QPCR, D7 of differentiation, 3 μM from D0, PA cultures No. 2 and No. 3, vs DMSO-treated or untreated cells), the aP2 expression result was “strongly inhibited”. Moreover, the “decrease in triglyceride accumulation relative to the control” value in [4] (10 μM, D10) came out at 80%. For the same molecule, the triglyceride accumulation result in assay [4] (addition at D0) is listed as “dose-dependent decrease”. Further, the “lipid accumulation in the cells (morphology)” value in [5] is recorded as “dose-dependent inhibition of lipid accumulation”. Moreover, the “expression of LPL marker” value in assay [6] is reported as “dose-dependent decrease”. In [6], the “expression of aP2 marker” value is “dose-dependent decrease”. Also, the AdipoRed staining result in assay [7] is given as “sharply decreases AdipoRed staining in a dose-dependent manner”.
`O=C(O)/C=C/c1ccc(O)c(O)c1` [caffeic acid]: in [8], the aP2 expression entry was “decreases aP2 expression”. In addition, in [9], the “lipid accumulation in the cells (morphology)” value is given as “inhibition of lipid accumulation”.
Regarding `COc1ccc(-c2cc3cc(F)c(F)cc3[nH]2)cc1NS(=O)(=O)NC(=O)OCC(C)C` [[[[5-(5,6-difluoro-1H-indol-2-yl)-2-methoxyphenyl]amino]sulfonyl]carabamic acid isobutyl ester], the half-inhibitory concentration (IC50) in assay [1] (setting [10]) was 14 nM.
Take `COc1ccc(C(=O)Nc2ccc(Cl)c(Cl)c2)cc1N` [3-amino-N-(3,4-dichlorophenyl)-4-methoxy-benzamide]: the IC50 in assay [1] (setting [10]) was 10 nM.
